One data set addresses T1, Substance-K receptor (Homo sapiens, UniProt P21452).
T1 sequence (P21452 whole entry): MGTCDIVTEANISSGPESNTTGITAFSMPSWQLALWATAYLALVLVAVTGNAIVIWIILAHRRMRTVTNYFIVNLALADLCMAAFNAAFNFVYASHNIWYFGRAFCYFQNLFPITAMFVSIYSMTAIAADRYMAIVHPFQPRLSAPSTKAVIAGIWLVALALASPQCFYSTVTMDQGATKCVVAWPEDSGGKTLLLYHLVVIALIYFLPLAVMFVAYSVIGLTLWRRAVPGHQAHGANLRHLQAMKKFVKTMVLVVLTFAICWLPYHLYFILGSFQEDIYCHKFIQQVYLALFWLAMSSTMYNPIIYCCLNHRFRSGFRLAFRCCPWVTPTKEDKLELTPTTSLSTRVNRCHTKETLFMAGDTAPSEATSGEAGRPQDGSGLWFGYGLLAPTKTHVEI
It counts as cell membranes, CHO, Membrane. Particulars: cho.

Data set [1] can be described thus: DRUGMATRIX: Sigma2 radioligand binding (ligand: [3H] Ifenprodil). Format: cell membranes, Rattus norvegicus, Wistar, Brain, Membrane. Particulars: Not Active = under 50% inhibition at 10 µM.
Data set [2] can be described thus: DRUGMATRIX: Nicotinic Acetylcholine radioligand binding (ligand: [125I] Epibatidine). It counts as cell membranes, Membrane. As to conditions: imr-32; Not Active = under 50% inhibition at 10 µM.
In data set [3] the target is T2, Neuropeptide Y receptor type 2 (Homo sapiens, UniProt P49146). Further: in other assays of this panel Not Active means under 50% inhibition at 10 µM.
T2 sequence (P49146 whole entry): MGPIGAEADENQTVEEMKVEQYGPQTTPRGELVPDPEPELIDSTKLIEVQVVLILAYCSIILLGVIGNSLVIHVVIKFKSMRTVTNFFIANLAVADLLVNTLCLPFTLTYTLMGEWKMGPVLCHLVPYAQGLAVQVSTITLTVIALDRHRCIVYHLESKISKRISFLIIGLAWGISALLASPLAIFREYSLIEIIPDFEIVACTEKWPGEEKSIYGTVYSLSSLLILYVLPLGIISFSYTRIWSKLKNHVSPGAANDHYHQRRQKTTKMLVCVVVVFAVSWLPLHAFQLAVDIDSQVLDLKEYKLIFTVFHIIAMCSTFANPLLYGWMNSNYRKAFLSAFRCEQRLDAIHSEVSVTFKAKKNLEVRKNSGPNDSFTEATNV
It counts as cell membranes, Membrane. As to conditions: kan-ts.

Data set [4] addresses Epidermal growth factor receptor (Homo sapiens, UniProt P00533). In words: DRUGMATRIX: Protein Tyrosine Kinase, EGF Receptor enzyme inhibition (substrate: Poly(Glu:Tyr)). It counts as cell-based, Insect cells. As to conditions: insect cells; Not Active = under 50% inhibition at 10 µM.
In data set [5] the target is Protein kinase C alpha type (Homo sapiens, UniProt P17252). It counts as cell-based. Particulars: sf9.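 Further: inhibition of PKCalpha kinase activity measured in an enzyme assay with histone as the phosphorylation substrate; in other assays of this panel Not Active means under 50% inhibition at 10 µM.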
The target in a further data set is Cytochrome P450 2E1 (Homo sapiens, UniProt P05181). Particulars: bti-tn-5b1-4. Further: in other assays of this panel Not Active means under 50% inhibition at 10 µM.

Where a SMILES comes first, the peptide text is derived from it. Bridges are numbered along the chain shown (N, C = ends). [ ]: non-standard residue; d: D form. The star is where a group is joined. Threoninol(2S,3R) = C[C@@H](O)[C@H](CO)N*

Sequence of Epidermal growth factor receptor (P00533 whole entry): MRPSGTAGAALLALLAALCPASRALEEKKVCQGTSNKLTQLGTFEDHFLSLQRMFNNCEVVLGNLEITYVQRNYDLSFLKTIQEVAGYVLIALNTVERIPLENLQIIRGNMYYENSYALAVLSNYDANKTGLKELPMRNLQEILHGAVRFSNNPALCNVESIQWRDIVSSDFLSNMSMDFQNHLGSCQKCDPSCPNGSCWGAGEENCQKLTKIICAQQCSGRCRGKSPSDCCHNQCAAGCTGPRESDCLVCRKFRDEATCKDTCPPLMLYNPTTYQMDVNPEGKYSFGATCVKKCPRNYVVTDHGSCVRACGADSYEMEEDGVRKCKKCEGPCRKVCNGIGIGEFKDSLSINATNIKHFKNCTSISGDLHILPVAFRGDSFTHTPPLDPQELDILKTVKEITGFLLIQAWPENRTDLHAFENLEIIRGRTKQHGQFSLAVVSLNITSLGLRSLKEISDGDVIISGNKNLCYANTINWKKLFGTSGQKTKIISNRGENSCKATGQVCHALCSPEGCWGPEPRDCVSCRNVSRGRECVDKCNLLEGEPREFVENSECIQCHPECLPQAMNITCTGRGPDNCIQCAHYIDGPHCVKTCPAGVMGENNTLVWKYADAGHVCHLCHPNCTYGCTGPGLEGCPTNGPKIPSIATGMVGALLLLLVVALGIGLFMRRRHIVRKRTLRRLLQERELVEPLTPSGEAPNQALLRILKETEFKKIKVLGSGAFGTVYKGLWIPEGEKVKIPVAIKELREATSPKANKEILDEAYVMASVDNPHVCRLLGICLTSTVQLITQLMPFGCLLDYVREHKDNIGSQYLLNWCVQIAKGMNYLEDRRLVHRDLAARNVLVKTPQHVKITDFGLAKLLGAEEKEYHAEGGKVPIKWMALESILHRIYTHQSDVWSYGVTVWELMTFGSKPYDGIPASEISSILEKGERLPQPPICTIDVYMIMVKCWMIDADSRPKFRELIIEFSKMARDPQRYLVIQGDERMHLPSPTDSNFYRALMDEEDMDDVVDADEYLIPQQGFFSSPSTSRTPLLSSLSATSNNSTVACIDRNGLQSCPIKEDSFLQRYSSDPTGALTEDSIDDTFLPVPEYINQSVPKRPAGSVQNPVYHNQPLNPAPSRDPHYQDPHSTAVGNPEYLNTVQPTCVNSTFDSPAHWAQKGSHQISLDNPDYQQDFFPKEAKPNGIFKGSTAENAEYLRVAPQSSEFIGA
Sequence of Cytochrome P450 2E1 (P05181 whole entry): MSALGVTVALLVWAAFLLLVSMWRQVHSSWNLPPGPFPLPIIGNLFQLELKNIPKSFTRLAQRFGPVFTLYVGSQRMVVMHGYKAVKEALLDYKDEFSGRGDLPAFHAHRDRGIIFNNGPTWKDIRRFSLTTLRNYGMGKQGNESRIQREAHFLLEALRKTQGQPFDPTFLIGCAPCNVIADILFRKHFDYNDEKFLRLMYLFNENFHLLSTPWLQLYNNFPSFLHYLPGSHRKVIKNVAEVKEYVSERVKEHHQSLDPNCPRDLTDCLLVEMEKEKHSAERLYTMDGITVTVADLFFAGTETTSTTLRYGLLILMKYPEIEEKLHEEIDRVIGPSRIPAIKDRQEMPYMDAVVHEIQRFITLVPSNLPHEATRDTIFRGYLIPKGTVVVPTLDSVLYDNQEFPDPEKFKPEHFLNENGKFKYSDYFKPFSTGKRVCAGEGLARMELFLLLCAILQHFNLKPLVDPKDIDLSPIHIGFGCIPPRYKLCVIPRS

For `COc1ccccc1C(=O)N1CCC(Cc2ccccc2)CC1`, the IC50 entry (against Substance-K receptor; in data set [1]; in data set [2]; in data set [3]; in data set [4]; in data set [5]) was “Not Active” throughout. The IC50 (commonly the concentration that gives 50% inhibition) against Cytochrome P450 2E1 is “Not Active”. Further, the inhibition constant (Ki) entry (in data set [1]; in data set [2]; at Cytochrome P450 2E1) was “Not Active” throughout.

`Cc1ccccc1C(=O)N1CCC(Cc2ccccc2)CC1`: the concentration for half-maximal inhibition (IC50) entry (against Substance-K receptor; in data set [1]; in data set [2]; in data set [3]; in data set [4]; in data set [5]) was “Not Active” throughout. The IC50 result at Cytochrome P450 2E1 was “Not Active”. Moreover, the Ki result (in data set [1]; in data set [2]; at Cytochrome P450 2E1) was “Not Active” throughout.

With `O=C1CC[C@H](N2C(=O)c3ccccc3C2=O)C(=O)N1`, the IC50 result (at Substance-K receptor; in data set [1]; in data set [2]; in data set [3]; in data set [4]; in data set [5]) was “Not Active” each time. For the same molecule, the IC50 result at Cytochrome P450 2E1 is recorded as “Not Active”. For the same molecule, the Ki result (in data set [1]; in data set [2]; on Cytochrome P450 2E1) was “Not Active” each time.

Regarding `N=C(Nc1ccccc1)Nc1ccccc1`, the IC50 result against Substance-K receptor was “Not Active”; in data set [1] (read-out: IC50), 2640 nM; in data set [2], “Not Active”; in data set [3] it was “Not Active”; in data set [4], “Not Active”; in data set [5], “Not Active”. Moreover, the concentration for half-maximal inhibition (IC50) entry against Cytochrome P450 2E1 is “Not Active”. For the same molecule, the Ki (in general, the equilibrium dissociation constant of an inhibitor or competing ligand from its target) in data set [1] (read-out: Ki) was 1620 nM; in data set [2], “Not Active”; at Cytochrome P450 2E1, “Not Active”.

Turning to `C[C@@H](O)[C@H](CO)NC(=O)[C@@H]1CSSC[C@H](NC(=O)[C@H](N)Cc2ccccc2)C(=O)N[C@@H](Cc2ccccc2)C(=O)N[C@H](Cc2c[nH]c3ccccc23)C(=O)N[C@@H](CCCCN)C(=O)N[C@@H]([C@@H](C)O)C(=O)N1` (H-[dF]CF[dW]KTC-{Threoninol(2S,3R)}; disulfide 2-7), the IC50 result (on Substance-K receptor; in data set [1]; in data set [2]; in data set [3]; in data set [4]; in data set [5]) was “Not Active” throughout. Besides, the half-maximal inhibitory concentration (IC50) result against Cytochrome P450 2E1 is “Not Active”. Moreover, the Ki result (in data set [1]; in data set [2]; on Cytochrome P450 2E1) was “Not Active” in each case.

For the molecule `S=C=Nc1cccc2ccccc12` [1-NAPHTHYLISOTHIOCYANATE], the IC50 entry (at Substance-K receptor; in data set [1]; in data set [2]; in data set [3]; in data set [4]; in data set [5]) was “Not Active” each time. Moreover, the IC50 result at Cytochrome P450 2E1 was “Not Active”. The Ki result (in data set [1]; in data set [2]; on Cytochrome P450 2E1) was “Not Active” each time.

With `C[C@](O)(CS(=O)(=O)c1ccc(F)cc1)C(=O)Nc1ccc(C#N)c(C(F)(F)F)c1` [(R)-BICALUTAMIDE], the IC50 entry (against Substance-K receptor; in data set [1]; in data set [2]; in data set [3]; in data set [4]; in data set [5]) was “Not Active” throughout. Further, the half-inhibitory concentration (IC50) result on Cytochrome P450 2E1 is “Not Active”. The inhibitory constant (Ki) entry (in data set [1]; in data set [2]; at Cytochrome P450 2E1) was “Not Active” in each case.

For `CCCC(=O)Nc1ccc(OCC(O)CNC(C)C)c(C(C)=O)c1` (stereo not given) [ACEBUTOLOL], the IC50 result (at Substance-K receptor; in data set [1]; in data set [2]; in data set [3]; in data set [4]; in data set [5]) was “Not Active” each time. Moreover, the IC50 result on Cytochrome P450 2E1 is on record as “Not Active”. Also, the Ki entry (in data set [1]; in data set [2]; at Cytochrome P450 2E1) was “Not Active” throughout.

Regarding `CC(=O)Nc1ccc(O)cc1` [ACETAMINOPHEN], the IC50 result (on Substance-K receptor; in data set [1]; in data set [2]; in data set [3]; in data set [4]; in data set [5]) was “Not Active” each time. For the same molecule, at Cytochrome P450 2E1, the IC50 entry is given as “Not Active”. The Ki result (in data set [1]; in data set [2]; on Cytochrome P450 2E1) was “Not Active” each time.

As to `O=NN(CCCl)C(=O)NCCCl` [CARMUSTINE], the IC50 entry (against Substance-K receptor; in data set [1]; in data set [2]; in data set [3]; in data set [4]; in data set [5]) was “Not Active” each time. Also, the Ki entry in data set [1] and in data set [2] was “Not Active” in each case.

In the case of `O=C(N[C@H](CO)[C@H](O)c1ccc([N+](=O)[O-])cc1)C(Cl)Cl` [CHLORAMPHENICOL], the IC50 entry (against Substance-K receptor; in data set [1]; in data set [2]; in data set [3]; in data set [4]; in data set [5]) was “Not Active” in each case. Also, the Ki entry in data set [1] and in data set [2] was “Not Active” in each case.

As for `C[C@@H]1C[C@@H]([C@H](O)CC2CC(=O)NC(=O)C2)C(=O)[C@@H](C)C1` [CYCLOHEXIMIDE], the IC50 entry (at Substance-K receptor; in data set [1]; in data set [2]; in data set [3]; in data set [4]; in data set [5]) was “Not Active” in each case. Moreover, the Ki entry in data set [1] and in data set [2] was “Not Active” in each case.

Consider `C/C=C/C[C@@H](C)[C@@H](O)[C@H]1C(=O)N[C@@H](CC)C(=O)N(C)CC(=O)N(C)[C@@H](CC(C)C)C(=O)N[C@@H](C(C)C)C(=O)N(C)[C@@H](CC(C)C)C(=O)N[C@@H](C)C(=O)N[C@H](C)C(=O)N(C)[C@@H](CC(C)C)C(=O)N(C)[C@@H](CC(C)C)C(=O)N(C)[C@@H](C(C)C)C(=O)N1C` [CYCLOSPORINE], for which the IC50 entry in data set [1], in data set [2], in data set [3], in data set [4] and in data set [5] was “Not Active” in each case. The Ki entry in data set [1] and in data set [2] was “Not Active” each time.

`NC(=O)NO` [HYDROXYUREA]: the half-inhibitory concentration (IC50) result (against Substance-K receptor; in data set [1]; in data set [2]; in data set [3]; in data set [4]; in data set [5]) was “Not Active” each time. In addition, the Ki result in data set [1] and in data set [2] was “Not Active” throughout.

Consider `COc1ccc2cc([C@H](C)C(=O)O)ccc2c1` [NAPROXEN], for which the half-inhibitory concentration (IC50) entry (against Substance-K receptor; in data set [1]; in data set [2]; in data set [3]; in data set [4]; in data set [5]) was “Not Active” throughout. The Ki entry in data set [1] and in data set [2] was “Not Active” each time.

For `CCn1cc(C(=O)O)c(=O)c2cc(F)c(N3CCN(C)CC3)cc21` [PEFLOXACIN], the IC50 entry (against Substance-K receptor; in data set [1]; in data set [2]; in data set [3]; in data set [4]; in data set [5]) was “Not Active” throughout. For the same molecule, the Ki entry in data set [1] and in data set [2] was “Not Active” throughout.

The values are drawn from ChEMBL document CHEMBL1909046, “DrugMatrix in vitro pharmacology data”.
